What was measured:
Format in all cases: cell-based
M14 = experiment: NCI 60 human tumor cell line screen (SRB): M14; settings: M14, Melanoma, 48 hours, read-out: GI50 values (μM conc.)
Procedure: (§1) The in vitro anticancer activity studies for these chalcone analogues were carried out at the National Cancer Institute, USA.
(§2) The chalcone compounds have been tested at NCI, USA, against sixty human tumor cell lines derived from nine cancer types (leukemia, non-small cell lung cancer, colon cancer, CNS cancer, melanoma cancer, ovarian cancer, renal cancer, prostate cancer and breast cancer). For these compounds results are expressed as growth inhibition (GI50) values as per NCI protocol.
(§3) We describe here the development and implementation of a pilot-scale, in vitro, anticancer drug screen utilizing a panel of 60 human tumor cell lines organized into subpanels representing leukemia, melanoma, and cancers of the lung, colon, kidney, ovary, and central nervous system. The ultimate goal of this disease-oriented screen is to facilitate the discovery of new compounds with potential cell line-specific and/or subpanel-specific antitumor activity. In the current screening protocol, each cell line is inoculated onto microtiter plates, then preincubated for 28 hours. Subsequently, test agents are added in five 10-fold dilutions and the culture is incubated for an additional 48 hours. For each test agent, a dose-response profile is generated. End-point determinations of the cell viability or cell growth are performed by in situ fixation of cells, followed by staining with a protein-binding dye, sulforhodamine B (SRB). The SRB binds to the basic amino acids of cellular macromolecules; the solubilized stain is measured spectrophotometrically to determine relative cell growth or viability in treated and untreated cells.

IGROV1 = experiment: NCI 60 human tumor cell line screen (SRB): IGROV1; settings: IGROV-1, IGROV1, Ovarian, 48 hours, read-out: GI50 values (μM conc.)
Procedure: as §1, §2, §3

NCI-H226 = experiment: NCI 60 human tumor cell line screen (SRB): NCI-H226; settings: NCI-H226, Non-small cell lung, 48 hours, read-out: GI50 values (μM conc.)
Procedure: as §1, §2, §3

MOLT-4 = experiment: NCI 60 human tumor cell line screen (SRB): MOLT-4; settings: MOLT-4, Leukemia, 48 hours, read-out: GI50 values (μM conc.)
Procedure: as §1, §2, §3

PC-3 = experiment: NCI 60 human tumor cell line screen (SRB): PC-3; settings: PC-3, Prostate, 48 hours, read-out: GI50 values (μM conc.)
Procedure: as §1, §2, §3

A549/ATCC = experiment: NCI 60 human tumor cell line screen (SRB): A549/ATCC; settings: Non-small cell lung, 48 hours, read-out: GI50 values (μM conc.)
Procedure: as §1, §2, §3

MDA-MB-231/ATCC = experiment: NCI 60 human tumor cell line screen (SRB): MDA-MB-231/ATCC; settings: Breast, 48 hours, read-out: GI50 values (μM conc.)
Procedure: as §1, §2, §3

SK-MEL-5 = experiment: NCI 60 human tumor cell line screen (SRB): SK-MEL-5; settings: SK-MEL-5, Melanoma, 48 hours, read-out: GI50 values (μM conc.)
Procedure: as §1, §2, §3

EKVX = experiment: NCI 60 human tumor cell line screen (SRB): EKVX; settings: Non-small cell lung, 48 hours, read-out: GI50 values (μM conc.)
Procedure: as §1, §2, §3

SK-OV-3 = experiment: NCI 60 human tumor cell line screen (SRB): SK-OV-3; settings: SK-OV-3, Ovarian, 48 hours, read-out: GI50 values (μM conc.)
Procedure: as §1, §2, §3

SR = experiment: NCI 60 human tumor cell line screen (SRB): SR; settings: Leukemia, 48 hours, read-out: GI50 values (μM conc.)
Procedure: as §1, §2, §3

MDA-MB-435 = experiment: NCI 60 human tumor cell line screen (SRB): MDA-MB-435; settings: MDA-MB-435, Melanoma, 48 hours, read-out: GI50 values (μM conc.)
Procedure: as §1, §2, §3

OVCAR-8 = experiment: NCI 60 human tumor cell line screen (SRB): OVCAR-8; settings: OVCAR-8, Ovarian, 48 hours, read-out: GI50 values (μM conc.)
Procedure: as §1, §2, §3

MDA-MB-468 = experiment: NCI 60 human tumor cell line screen (SRB): MDA-MB-468; settings: MDA-MB-468, Breast, 48 hours, read-out: GI50 values (μM conc.)
Procedure: as §1, §2, §3

COLO-205 = experiment: NCI 60 human tumor cell line screen (SRB): COLO-205; settings: COLO-205, Colon, 48 hours, read-out: GI50 values (μM conc.)
Procedure: as §1, §2, §3

HCC-2998 = experiment: NCI 60 human tumor cell line screen (SRB): HCC-2998; settings: HCC-2998, Colon, 48 hours, read-out: GI50 values (μM conc.)
Procedure: as §1, §2, §3

NCI-H23 = experiment: NCI 60 human tumor cell line screen (SRB): NCI-H23; settings: NCI-H23, Non-small cell lung, 48 hours, read-out: GI50 values (μM conc.)
Procedure: as §1, §2, §3

SW-620 = experiment: NCI 60 human tumor cell line screen (SRB): SW-620; settings: SW-620, Colon, 48 hours, read-out: GI50 values (μM conc.)
Procedure: as §1, §2, §3

UO-31 = experiment: NCI 60 human tumor cell line screen (SRB): UO-31; settings: UO-31, Renal, 48 hours, read-out: GI50 values (μM conc.)
Procedure: as §1, §2, §3

SN12C = experiment: NCI 60 human tumor cell line screen (SRB): SN12C; settings: Renal, 48 hours, read-out: GI50 values (μM conc.)
Procedure: as §1, §2, §3

NCI-H460 = experiment: NCI 60 human tumor cell line screen (SRB): NCI-H460; settings: NCI-H460, Non-small cell lung, 48 hours, read-out: GI50 values (μM conc.)
Procedure: as §1, §2, §3

TK-10 = experiment: NCI 60 human tumor cell line screen (SRB): TK-10; settings: TK-10, Renal, 48 hours, read-out: GI50 values (μM conc.)
Procedure: as §1, §2, §3

UACC-62 = experiment: NCI 60 human tumor cell line screen (SRB): UACC-62; settings: UACC-62, Melanoma, 48 hours, read-out: GI50 values (μM conc.)
Procedure: as §1, §2, §3

SF-295 = experiment: NCI 60 human tumor cell line screen (SRB): SF-295; settings: SF-295, CNS, 48 hours, read-out: GI50 values (μM conc.)
Procedure: as §1, §2, §3

HT29 = experiment: NCI 60 human tumor cell line screen (SRB): HT29; settings: HT-29, HT29, Colon, 48 hours, read-out: GI50 values (μM conc.)
Procedure: as §1, §2, §3

SK-MEL-28 = experiment: NCI 60 human tumor cell line screen (SRB): SK-MEL-28; settings: SK-MEL-28, Melanoma, 48 hours, read-out: GI50 values (μM conc.)
Procedure: as §1, §2, §3

HCT-15 = experiment: NCI 60 human tumor cell line screen (SRB): HCT-15; settings: HCT-15, Colon, 48 hours, read-out: GI50 values (μM conc.)
Procedure: as §1, §2, §3

A498 = experiment: NCI 60 human tumor cell line screen (SRB): A498; settings: A498, Renal, 48 hours, read-out: GI50 values (μM conc.)
Procedure: as §1, §2, §3

SK-MEL-2 = experiment: NCI 60 human tumor cell line screen (SRB): SK-MEL-2; settings: SK-MEL-2, Melanoma, 48 hours, read-out: GI50 values (μM conc.)
Procedure: as §1, §2, §3

SMILES	GI50 (M14) [µM]	GI50 (IGROV1) [µM]	GI50 (NCI-H226) [µM]	GI50 (MOLT-4) [µM]	GI50 (PC-3) [µM]	GI50 (MDA-MB-231/ATCC) [µM]	GI50 (SK-MEL-5) [µM]	GI50 (EKVX) [µM]	GI50 (SK-OV-3) [µM]	GI50 (SR) [µM]	GI50 (MDA-MB-435) [µM]	GI50 (OVCAR-8) [µM]	GI50 (MDA-MB-468) [µM]	GI50 (COLO-205) [µM]	GI50 (HCC-2998) [µM]	GI50 (NCI-H23) [µM]	GI50 (SW-620) [µM]	GI50 (UO-31) [µM]	GI50 (SN12C) [µM]	GI50 (NCI-H460) [µM]	further results
COc1cc(/C=C/C(=O)c2cccnc2Nc2ccc(F)cc2)cc(OC)c1OC [7f, (E)-1-(2-(4-Fluorophenylamino)pyridin-3-yl)-3-(3,4,5-trimethoxyphenyl)prop-2-en-1-one]	3.19	7.42	1.79	2.75	3.95	3.07	2.51	3.94	3.1	1.93	3.05	2.69	1.77	2.64	1.78	2.34	3.3	5.62	3.23	2.83	GI50 (A549/ATCC): 2.66 µM; GI50 (TK-10): 3.52 µM; GI50 (UACC-62): 2.35 µM; GI50 (SF-295): 4.16 µM; GI50 (HT29): 2.75 µM; GI50 (SK-MEL-28): 3.22 µM; GI50 (HCT-15): 2.27 µM; GI50 (A498): 2.18 µM; GI50 (SK-MEL-2): 2.52 µM
COc1cc(C(=O)/C=C/c2cccnc2Nc2ccc(Cl)cc2)cc(OC)c1OC [6ax, (E)-3-(2-(4-Chlorophenylamino)pyridin-3-yl)-1-(3,4,5-trimethoxyphenyl)prop-2-en-1-one]	1.75	2.24	1.16	2.55	1.44	1.49	1.5	1.61	1.72	0.77	1.49	1.63	1.29	1.83	1.52	1.58	0.95	1.32	1.46	1.92	GI50 (A549/ATCC): 1.63 µM; GI50 (TK-10): 1.87 µM; GI50 (UACC-62): 1.54 µM; GI50 (SF-295): 1.93 µM; GI50 (HT29): 1.43 µM; GI50 (SK-MEL-28): 1.72 µM; GI50 (HCT-15): 1.49 µM; GI50 (A498): 1.4 µM; GI50 (SK-MEL-2): 2.01 µM
COc1cc(C(=O)/C=C/c2cccnc2Nc2ccccc2)cc(OC)c1OC [6a, (E)-3-(2-(Phenylamino)pyridin-3-yl)-1-(3,4,5-trimethoxyphenyl)prop-2-en-1-one]	1.5	2.37	1.23	2.68	1.1	1.4	1.34	1.61	1.6	0.34	0.63	1.27	0.66	1.29	1.18	1.43	0.42	1.19	1.21	1.8	GI50 (A549/ATCC): 1.3 µM; GI50 (TK-10): 1.82 µM; GI50 (UACC-62): 1.29 µM; GI50 (SF-295): 1.87 µM; GI50 (HT29): 0.51 µM; GI50 (SK-MEL-28): 1.58 µM; GI50 (HCT-15): 0.74 µM; GI50 (A498): 1.42 µM; GI50 (SK-MEL-2): 1.66 µM
COc1ccc(Nc2ncccc2/C=C/C(=O)c2cc(OC)c(OC)c(OC)c2)cc1 [6h, (E)-3-(2-(4-Methoxyphenylamino)pyridin-3-yl)-1-(3,4,5-trimethoxyphenyl)prop-2-en-1-one]	1.65	2	1.37	2.09	2.82	1.94	1.39	1.8	2.72	0.46	1.46	1.56	1.15	1.69	1.68	1.72	1.2	1.12	1.56	2.01	GI50 (UACC-62): 1.56 µM; GI50 (SF-295): 1.85 µM; GI50 (HT29): 1.6 µM; GI50 (SK-MEL-28): 1.37 µM; GI50 (HCT-15): 1.66 µM; GI50 (A498): 3.19 µM; GI50 (SK-MEL-2): 1.47 µM
COc1ccc(C(=O)/C=C/c2cccnc2Nc2cc(OC)c(OC)c(OC)c2)cc1 [6z, (E)-1-(4-Methoxyphenyl)-3-(2-(3,4,5-trimethoxyphenylamino)pyridin-3-yl)prop-2-en-1-one]	2.55	4.64	1.73	2.26	1.13	2.15	2.41	10.8	3.15	0.09	0.74	2.2	0.77	1.54	1.42	4.02	0.39	1.44	1.91	2.16	GI50 (A549/ATCC): 2.15 µM; GI50 (TK-10): 2.06 µM; GI50 (UACC-62): 1.9 µM; GI50 (SF-295): 2.91 µM; GI50 (HT29): 0.37 µM; GI50 (SK-MEL-28): 3.72 µM; GI50 (HCT-15): 0.91 µM; GI50 (A498): 4.28 µM; GI50 (SK-MEL-2): 7.04 µM
COc1cc(Nc2ncccc2/C=C/C(=O)c2cc(OC)c(OC)c(OC)c2)cc(OC)c1OC [6v, (E)-1-(3,4,5-Trimethoxyphenyl)-3-(2-(3,4,5-trimethoxyphenylamino)pyridin-3-yl)prop-2-en-1-one]	8.99	12.6	10.8	6.72	7.81	12.6	4.17	7.55	11.1	3.6	5.63	6.7	6.78	4.44	7.74	10.2	4.81	5.09	5.1	3.61	GI50 (A549/ATCC): 4.21 µM; GI50 (TK-10): 1.55 µM; GI50 (UACC-62): 4.96 µM; GI50 (SF-295): 4.92 µM; GI50 (HT29): 5.51 µM; GI50 (SK-MEL-28): 5.43 µM; GI50 (HCT-15): 5.02 µM; GI50 (A498): 2.64 µM; GI50 (SK-MEL-2): 8 µM

— US9006451B1, “2-anilinonicotinyl based chalcones useful as potential anticancer agents and process for preparation thereof” (Council of Scientific and Industrial Research, priority 2013, dated 2015)
